A word on the GI50: it is the concentration that inhibits growth by half.

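Exposure lasted 48 hours, with cells grown in 96-well plates and compounds tested at five concentrations. At the GI50, growth is halved.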 Active and inactive are the calls of the source. Cut-off read from the data, not from the text of the source: active = GI50 up to about 1.1 µM and inactive = higher. A value given as a limit tells only on which side of the number the result lay.

Some test systems named below: NCI-H23; HCC 2998; HL-60; HCT-15; MDA-MB-435; PC-3; DU-145; TK-10; T47D; SN12C; HOP-92; M14; SNB-19; HOP-62; UO-31; SNB-78; SF-539; NCI-H522; NCI-H226; RXF 393.
Holding throughout (experiment): DTP human tumour cell line panel, 48 h

As for `C/C(=N\NC(=N)N)C(CN(C)C)C(c1ccccc1)c1c(O)c2ccccc2oc1=O` (stereo not given), the GI50 was > 100 µM (inactive) with NCI-H23; > 100 µM (inactive) in the experiment with HCC 2998; > 100 µM (inactive) with HL-60; over 100 µM in the experiment on HCT-15; > 100 µM (inactive) in the experiment with MDA-MB-435; > 100 µM (inactive) in the experiment with PC-3. The GI50 is > 100 µM (inactive) with DU-145; > 100 µM (inactive) with TK-10; 4.62 µM (inactive) in the experiment with T47D; > 100 µM (inactive) in the experiment with SN12C; 4.91 µM (inactive) in the experiment with HOP-92; > 100 µM (inactive) with M14. Also, the GI50 in the experiment on SNB-19 was > 100 µM (inactive); in the experiment with HOP-62, > 26.6 µM (inactive); with UO-31 it was > 100 µM (inactive); with SNB-78 it was > 100 µM (inactive); in the experiment on SF-539, > 100 µM (inactive); with NCI-H522, > 100 µM (inactive). Besides, the GI50 with NCI-H226 is > 100 µM (inactive).
For `COc1ccc(C2=Nc3ccccc3NC(=O)C2)cc1`, the GI50 in the experiment with NCI-H23 was 26.9 µM (inactive); in the experiment with HCC 2998, > 100 µM (inactive); in the experiment with HL-60 it was 21.8 µM (inactive); in the experiment with HCT-15, 51.9 µM; with RXF 393, 22.3 µM (inactive); with TK-10, 27.9 µM (inactive). The GI50 is 43.3 µM (inactive) in the experiment on SN12C; 21 µM (inactive) in the experiment on HOP-92; > 100 µM (inactive) in the experiment on M14; 28.2 µM (inactive) in the experiment on SNB-19; 22.5 µM (inactive) in the experiment with HOP-62; 34.4 µM (inactive) in the experiment on UO-31. Further, the GI50 is 25.2 µM (inactive) in the experiment with SNB-78, 29.4 µM (inactive) in the experiment with SF-539, 38.9 µM (inactive) in the experiment with NCI-H522 and > 100 µM (inactive) in the experiment with NCI-H226.
